Results as given in ChEMBL document CHEMBL4024706 (Eur J Med Chem, 2017).

How the values were obtained:
[1] = target: Phosphatidylinositol 4-kinase beta (Homo sapiens) (UniProt Q9UBF8); assay: Inhibition of wild-type human full length PIK4CB (M1 to M828 residues) expressed in mammalian expression system assessed as residual activity at 1 uM by Kinomescan method relative to control
[2] = target: Serine/threonine-protein kinase Chk1 (Homo sapiens) (UniProt O14757); assay: Inhibition of wild-type human partial length CHEK1 (M1 to G289 residues) expressed in bacterial expression system assessed as residual activity at 1 uM by Kinomescan method relative to control
[3] = target: Fibroblast growth factor receptor 4 (Homo sapiens) (UniProt P22455); assay: Inhibition of wild-type human partial length FGFR4 (G402 to E713 residues) expressed in bacterial expression system assessed as residual activity at 1 uM by Kinomescan method relative to control
[4] = target: Calcium/calmodulin-dependent protein kinase type II subunit gamma (Homo sapiens) (UniProt Q13555); assay: Inhibition of wild-type human partial length CAMK2G (R9 to A303 residues) expressed in bacterial expression system assessed as residual activity at 1 uM by Kinomescan method relative to control
[5] = target: Platelet-derived growth factor receptor beta (Homo sapiens) (UniProt P09619); assay: Inhibition of wild-type human partial length PDGFRB (V582 to Y1009 residues) expressed in bacterial expression system assessed as residual activity at 1 uM by Kinomescan method relative to control
Platelet-derived growth factor receptor beta (Homo sapiens), sequence (P09619 whole entry, the tested form may be a part): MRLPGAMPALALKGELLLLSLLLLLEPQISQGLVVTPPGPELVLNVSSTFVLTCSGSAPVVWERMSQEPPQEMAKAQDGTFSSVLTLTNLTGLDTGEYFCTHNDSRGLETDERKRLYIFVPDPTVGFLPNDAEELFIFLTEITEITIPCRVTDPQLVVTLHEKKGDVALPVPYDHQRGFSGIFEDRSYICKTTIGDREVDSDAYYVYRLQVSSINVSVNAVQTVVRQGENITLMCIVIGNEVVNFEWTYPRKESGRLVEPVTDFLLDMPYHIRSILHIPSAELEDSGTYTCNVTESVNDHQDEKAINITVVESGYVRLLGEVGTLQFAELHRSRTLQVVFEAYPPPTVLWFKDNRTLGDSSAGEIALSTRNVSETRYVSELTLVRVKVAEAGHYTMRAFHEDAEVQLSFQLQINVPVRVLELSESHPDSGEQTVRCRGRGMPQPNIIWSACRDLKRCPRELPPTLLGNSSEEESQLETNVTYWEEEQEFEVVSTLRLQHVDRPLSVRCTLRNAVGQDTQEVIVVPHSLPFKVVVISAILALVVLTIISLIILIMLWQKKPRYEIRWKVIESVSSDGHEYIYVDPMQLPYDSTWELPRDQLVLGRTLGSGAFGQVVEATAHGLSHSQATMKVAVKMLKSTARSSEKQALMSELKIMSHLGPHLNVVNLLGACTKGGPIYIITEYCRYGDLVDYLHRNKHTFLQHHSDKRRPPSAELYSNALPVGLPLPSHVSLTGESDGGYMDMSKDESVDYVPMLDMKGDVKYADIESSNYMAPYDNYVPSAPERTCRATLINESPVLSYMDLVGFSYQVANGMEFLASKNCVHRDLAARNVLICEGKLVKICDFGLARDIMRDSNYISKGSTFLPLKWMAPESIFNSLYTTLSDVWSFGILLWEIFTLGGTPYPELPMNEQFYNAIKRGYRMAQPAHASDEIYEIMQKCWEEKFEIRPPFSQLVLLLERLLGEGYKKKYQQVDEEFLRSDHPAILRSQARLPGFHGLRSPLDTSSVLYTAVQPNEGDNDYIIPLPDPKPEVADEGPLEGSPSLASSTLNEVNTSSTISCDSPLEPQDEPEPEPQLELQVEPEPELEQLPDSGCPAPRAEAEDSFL

[6] = system: Epidermal growth factor receptor (Homo sapiens), P00533 [G719C]; assay: Inhibition of human partial length EGFR G719C mutant (R669 to V1011 residues) expressed in bacterial expression system assessed as residual activity at 1 uM by Kinomescan method relative to control
[7] = target: Ephrin type-A receptor 2 (Homo sapiens) (UniProt P29317); assay: Inhibition of wild-type human partial length EPHA2 (T593 to V891 residues) expressed in bacterial expression system assessed as residual activity at 1 uM by Kinomescan method relative to control
Ephrin type-A receptor 2 (Homo sapiens), sequence (P29317 whole entry, the tested form may be a part): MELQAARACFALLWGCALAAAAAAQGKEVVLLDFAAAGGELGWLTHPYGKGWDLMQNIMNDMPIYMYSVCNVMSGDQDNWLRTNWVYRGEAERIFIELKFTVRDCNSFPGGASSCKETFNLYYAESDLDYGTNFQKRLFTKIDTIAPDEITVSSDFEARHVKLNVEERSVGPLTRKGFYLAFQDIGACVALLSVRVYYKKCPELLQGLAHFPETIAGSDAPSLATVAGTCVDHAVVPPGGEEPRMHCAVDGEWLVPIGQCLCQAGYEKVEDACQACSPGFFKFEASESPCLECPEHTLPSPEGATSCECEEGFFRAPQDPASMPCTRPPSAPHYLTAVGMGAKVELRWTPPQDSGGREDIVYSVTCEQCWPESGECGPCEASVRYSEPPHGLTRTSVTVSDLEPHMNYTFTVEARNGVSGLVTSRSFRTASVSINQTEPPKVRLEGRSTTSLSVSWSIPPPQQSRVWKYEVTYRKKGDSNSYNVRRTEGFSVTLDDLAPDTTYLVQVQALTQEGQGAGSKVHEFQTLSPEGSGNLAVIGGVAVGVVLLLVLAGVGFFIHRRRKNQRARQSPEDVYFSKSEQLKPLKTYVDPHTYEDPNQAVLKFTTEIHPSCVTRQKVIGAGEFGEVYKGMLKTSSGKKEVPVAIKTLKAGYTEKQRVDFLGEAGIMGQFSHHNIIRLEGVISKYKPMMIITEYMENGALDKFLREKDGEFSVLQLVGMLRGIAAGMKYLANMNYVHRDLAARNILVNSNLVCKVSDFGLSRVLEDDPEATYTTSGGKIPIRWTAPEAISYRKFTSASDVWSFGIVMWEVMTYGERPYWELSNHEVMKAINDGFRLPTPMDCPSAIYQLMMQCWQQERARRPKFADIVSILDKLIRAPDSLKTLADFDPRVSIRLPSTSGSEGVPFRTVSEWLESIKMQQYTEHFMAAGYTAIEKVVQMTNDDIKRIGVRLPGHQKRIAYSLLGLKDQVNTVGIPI

[8] = target: Cyclin-dependent kinase-like 5 (Homo sapiens) (UniProt O76039); assay: Inhibition of wild-type human partial length CDKL5 (M1 to S337 residues) expressed in mammalian expression system assessed as residual activity at 1 uM by Kinomescan method relative to control
[9] = target: MAP kinase-interacting serine/threonine-protein kinase 2 (Homo sapiens) (UniProt Q9HBH9); assay: Inhibition of wild-type human partial length MKNK2 (G63 to S388 residues) expressed in mammalian expression system assessed as residual activity at 1 uM by Kinomescan method relative to control
[10] = target: Serine/threonine-protein kinase Nek3 (Homo sapiens) (UniProt P51956); assay: Inhibition of wild-type human full length NEK3 (M1 to R506 residues) expressed in mammalian expression system assessed as residual activity at 1 uM by Kinomescan method relative to control
[11] = target: Serine/threonine-protein kinase pim-3 (Homo sapiens) (UniProt Q86V86); assay: Inhibition of wild-type human partial length PIM3 (G16 to A317 residues) expressed in bacterial expression system assessed as residual activity at 1 uM by Kinomescan method relative to control
[12] = target: Tyrosine-protein kinase FRK (Homo sapiens) (UniProt P42685); assay: Inhibition of wild-type human partial length FRK (A215 to F503 residues) expressed in bacterial expression system assessed as residual activity at 1 uM by Kinomescan method relative to control
[13] = system: Mast/stem cell growth factor receptor Kit (Homo sapiens), P10721 [V559D,T670I]; assay: Inhibition of human partial length KIT V559D/T670I double mutant (Y545 to D952 residues) expressed in bacterial expression system assessed as residual activity at 1 uM by Kinomescan method relative to control
Mast/stem cell growth factor receptor Kit (Homo sapiens), P10721 [V559D,T670I], sequence (P10721 whole entry V559D/T670I, the tested form may be a part): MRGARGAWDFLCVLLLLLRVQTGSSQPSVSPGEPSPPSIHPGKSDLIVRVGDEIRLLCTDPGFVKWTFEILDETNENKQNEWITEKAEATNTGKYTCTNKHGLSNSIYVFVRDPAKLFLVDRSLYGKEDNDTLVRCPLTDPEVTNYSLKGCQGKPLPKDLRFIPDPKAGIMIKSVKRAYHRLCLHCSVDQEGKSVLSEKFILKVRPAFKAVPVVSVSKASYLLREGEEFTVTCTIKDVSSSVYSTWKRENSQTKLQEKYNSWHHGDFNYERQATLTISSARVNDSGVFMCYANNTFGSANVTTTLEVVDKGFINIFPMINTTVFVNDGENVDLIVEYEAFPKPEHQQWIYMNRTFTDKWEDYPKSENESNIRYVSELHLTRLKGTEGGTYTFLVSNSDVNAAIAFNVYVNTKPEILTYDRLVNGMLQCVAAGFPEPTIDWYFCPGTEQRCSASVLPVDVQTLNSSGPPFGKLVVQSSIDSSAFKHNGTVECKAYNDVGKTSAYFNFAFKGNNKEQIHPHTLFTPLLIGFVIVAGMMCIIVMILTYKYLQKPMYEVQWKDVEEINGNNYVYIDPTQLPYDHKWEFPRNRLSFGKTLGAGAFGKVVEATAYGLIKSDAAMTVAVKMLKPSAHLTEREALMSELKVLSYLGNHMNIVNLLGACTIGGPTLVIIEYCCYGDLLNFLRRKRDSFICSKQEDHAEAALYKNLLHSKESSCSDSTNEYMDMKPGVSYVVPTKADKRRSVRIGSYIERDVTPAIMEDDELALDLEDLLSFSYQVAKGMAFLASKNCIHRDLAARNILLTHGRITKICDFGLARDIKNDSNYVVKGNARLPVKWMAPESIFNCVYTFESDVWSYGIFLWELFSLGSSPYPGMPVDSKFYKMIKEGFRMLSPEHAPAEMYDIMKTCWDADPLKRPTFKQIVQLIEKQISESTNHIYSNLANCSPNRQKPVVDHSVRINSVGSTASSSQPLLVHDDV

[14] = target: Serine/threonine-protein kinase MARK1 (Homo sapiens) (UniProt Q9P0L2); assay: Inhibition of wild-type human partial length MARK1 (Q30 to T341 residues) expressed in bacterial expression system assessed as residual activity at 1 uM by Kinomescan method relative to control
Serine/threonine-protein kinase MARK1 (Homo sapiens), sequence (Q9P0L2 whole entry, looked up, the tested form may be a part): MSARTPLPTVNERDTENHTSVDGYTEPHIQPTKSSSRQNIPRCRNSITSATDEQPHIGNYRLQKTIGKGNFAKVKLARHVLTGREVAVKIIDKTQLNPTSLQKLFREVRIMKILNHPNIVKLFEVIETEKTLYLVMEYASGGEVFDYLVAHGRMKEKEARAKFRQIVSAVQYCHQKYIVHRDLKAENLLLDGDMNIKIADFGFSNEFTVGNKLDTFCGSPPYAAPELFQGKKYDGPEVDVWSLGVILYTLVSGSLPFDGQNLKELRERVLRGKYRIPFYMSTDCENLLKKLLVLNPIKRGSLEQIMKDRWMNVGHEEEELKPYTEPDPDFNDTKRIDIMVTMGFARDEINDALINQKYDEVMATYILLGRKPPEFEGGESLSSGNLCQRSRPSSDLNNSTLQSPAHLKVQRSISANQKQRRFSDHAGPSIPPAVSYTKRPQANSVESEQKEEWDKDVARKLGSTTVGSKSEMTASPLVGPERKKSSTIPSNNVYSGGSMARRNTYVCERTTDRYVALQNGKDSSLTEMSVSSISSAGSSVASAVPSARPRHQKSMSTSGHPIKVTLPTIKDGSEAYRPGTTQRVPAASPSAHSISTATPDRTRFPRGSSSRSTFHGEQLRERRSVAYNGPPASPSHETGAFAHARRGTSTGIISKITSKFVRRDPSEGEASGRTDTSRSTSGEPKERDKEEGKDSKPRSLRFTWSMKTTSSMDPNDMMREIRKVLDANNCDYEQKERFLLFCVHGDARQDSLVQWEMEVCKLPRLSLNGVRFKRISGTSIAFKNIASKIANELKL

[15] = target: Serine/threonine-protein kinase Sgk3 (Homo sapiens) (UniProt Q96BR1); assay: Inhibition of wild-type human partial length SGK3 (M119 to L496 residues) expressed in mammalian expression system assessed as residual activity at 1 uM by Kinomescan method relative to control
[16] = target: Serine/threonine-protein kinase Chk2 (Homo sapiens) (UniProt O96017); assay: Inhibition of wild-type human partial length CHEK2 (S253 to E574 residues) expressed in bacterial expression system assessed as residual activity at 1 uM by Kinomescan method relative to control
[17] = target: Calcium/calmodulin-dependent protein kinase type 1D (Homo sapiens) (UniProt Q8IU85); assay: Inhibition of wild-type human partial length CAMK1D (M1 to K299 residues) expressed in bacterial expression system assessed as residual activity at 1 uM by Kinomescan method relative to control
Calcium/calmodulin-dependent protein kinase type 1D (Homo sapiens), sequence (Q8IU85 whole entry, looked up, the tested form may be a part): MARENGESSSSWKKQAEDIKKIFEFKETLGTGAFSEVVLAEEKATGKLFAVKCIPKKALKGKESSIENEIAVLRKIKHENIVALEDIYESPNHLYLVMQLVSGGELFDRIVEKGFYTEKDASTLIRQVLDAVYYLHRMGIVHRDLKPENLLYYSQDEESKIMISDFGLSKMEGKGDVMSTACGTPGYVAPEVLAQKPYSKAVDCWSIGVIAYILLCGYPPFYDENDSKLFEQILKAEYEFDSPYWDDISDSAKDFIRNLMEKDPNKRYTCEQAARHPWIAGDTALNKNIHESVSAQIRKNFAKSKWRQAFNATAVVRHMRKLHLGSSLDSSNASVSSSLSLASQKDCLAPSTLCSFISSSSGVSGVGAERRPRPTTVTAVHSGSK

[18] = target: Receptor-interacting serine/threonine-protein kinase 4 (Homo sapiens) (UniProt P57078); assay: Inhibition of wild-type human partial length RIPK4 (M1 to V303 residues) expressed in mammalian expression system assessed as residual activity at 1 uM by Kinomescan method relative to control
[19] = target: Mitogen-activated protein kinase 3 (Homo sapiens) (UniProt P27361); assay: Inhibition of wild-type human full length ERK1 (M1 to P379 residues) expressed in bacterial expression system assessed as residual activity at 1 uM by Kinomescan method relative to control
[20] = target: Protein kinase C iota type (Homo sapiens) (UniProt P41743); assay: Inhibition of wild-type human partial length PRKCI (H215 to V587 residues) expressed in mammalian expression system assessed as residual activity at 1 uM by Kinomescan method relative to control
[21] = target: Ribosomal protein S6 kinase alpha-1 (Homo sapiens) (UniProt Q15418); assay: Inhibition of wild-type human partial length C-terminal RSK1 kinase domain 2 (P360 to L681 residues) expressed in bacterial expression system assessed as residual activity at 1 uM by Kinomescan method relative to control
[22] = target: Serine/threonine-protein kinase PAK 2 (Homo sapiens) (UniProt Q13177); assay: Inhibition of wild-type human partial length PAK2 (P151 to R525 residues) expressed in bacterial expression system assessed as residual activity at 1 uM by Kinomescan method relative to control
[23] = target: Hormonally up-regulated neu tumor-associated kinase (Homo sapiens) (UniProt P57058); assay: Inhibition of wild-type human partial length HUNK (A31 to K354 residues) expressed in bacterial expression system assessed as residual activity at 1 uM by Kinomescan method relative to control
[24] = target: Phosphatidylinositol 3-kinase catalytic subunit type 3 (Homo sapiens) (UniProt Q8NEB9); assay: Inhibition of wild-type human partial length VPS34 (S282 to H879 residues) expressed in mammalian expression system assessed as residual activity at 1 uM by Kinomescan method relative to control
[25] = system: Serine/threonine-protein kinase B-raf (Homo sapiens), P15056 [V600E]; assay: Inhibition of human partial length BRAF V600E mutant (S429 to E741 residues) expressed in mammalian expression system assessed as residual activity at 1 uM by Kinomescan method relative to control

Phosphatidylinositol 4-kinase beta (Homo sapiens), sequence (Q9UBF8 2-816 limits assumed): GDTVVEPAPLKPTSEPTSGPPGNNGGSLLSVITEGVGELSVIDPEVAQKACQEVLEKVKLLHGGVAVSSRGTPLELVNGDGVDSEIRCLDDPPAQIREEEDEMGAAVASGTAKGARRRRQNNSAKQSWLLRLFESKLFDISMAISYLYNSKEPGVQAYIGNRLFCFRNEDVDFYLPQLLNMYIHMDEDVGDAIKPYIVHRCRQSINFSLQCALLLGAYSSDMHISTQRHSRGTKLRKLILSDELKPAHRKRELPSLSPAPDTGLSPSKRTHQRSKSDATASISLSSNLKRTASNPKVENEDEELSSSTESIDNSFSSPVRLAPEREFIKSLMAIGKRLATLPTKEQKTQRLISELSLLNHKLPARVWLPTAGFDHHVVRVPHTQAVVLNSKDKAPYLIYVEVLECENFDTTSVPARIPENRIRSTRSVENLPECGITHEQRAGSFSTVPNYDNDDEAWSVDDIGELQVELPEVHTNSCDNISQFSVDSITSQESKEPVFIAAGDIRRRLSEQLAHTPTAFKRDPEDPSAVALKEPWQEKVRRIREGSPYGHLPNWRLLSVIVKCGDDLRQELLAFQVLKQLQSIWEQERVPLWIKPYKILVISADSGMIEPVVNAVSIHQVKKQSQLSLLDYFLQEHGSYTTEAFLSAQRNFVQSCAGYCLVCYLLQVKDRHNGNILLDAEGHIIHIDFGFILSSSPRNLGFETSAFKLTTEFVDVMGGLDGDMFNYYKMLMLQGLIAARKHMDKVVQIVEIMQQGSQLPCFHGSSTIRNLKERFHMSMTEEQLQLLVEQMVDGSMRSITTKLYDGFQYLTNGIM

## C=CC(=O)Nc1cc(Nc2cc(-c3cccc(NC(=O)c4ccc(C(C)(C)C)cc4)c3C)cn(C)c2=O)ccc1C(=O)N1CCOCC1
[1]
  Activity: 90%
[2]
  Activity: 100%
[3]
  Activity: 84%
[4]
  Activity: 100%
[5]
  Activity: 92%
[6]
  Activity: 100%
[7]
  Activity: 87%
[8]
  Activity: 100%
[9]
  Activity: 89%
[10]
  Activity: 97%
[11]
  Activity: 98%
[12]
  Activity: 84%
[13]
  Activity: 96%
[14]
  Activity: 88%
[15]
  Activity: 81%
[16]
  Activity: 87%
[17]
  Activity: 97%
[18]
  Activity: 94%
[19]
  Activity: 99%
[20]
  Activity: 100%
[21]
  Activity: 100%
[22]
  Activity: 81%
[23]
  Activity: 77%
[24]
  Activity: 90%
[25]
  Activity: 100%
